Entries after “also recorded” stand apart in the source; their conditions may differ. Read-outs that look alike come from different tables or passages of the source.

One experiment addresses T1, rat liver ER GluII (Rattus norvegicus, UniProt A0A8I6GFL3).
T1 construct: Rat liver ER, II; from tissue; host or cells: liver of male Wistar rats
In words: ER α-glucosidase II inhibition with native-like fluorescently labelled glycan substrate (HPLC). The format is biochemical. How it is done: % Inhibition (C) Glc1→ Glc0
Supplemental Figure 1: In vitro inhibition of GluII by 4. Enzyme activity assays were carried out using rat liver ER GluII with either α-p-nitrophenylglucoside ( α-PNPG, A) or ﬂuorescently labelled glycan ( B and C) as substrate. The curves show the relationship between ToP-DNJ 4 concentration and inhibition of the enzymatic activity. The iminosugar inhibits the enzymatic catalysis of the reactions indepen-dent of substrate, but with diﬀering IC 50 values: 9.0 µm for α-PNPG; 14 µm for Glc2Man7GlcNAc2; 56 µm for Glc1Man7GlcNAc2. […]
4 Enzyme Inhibition Assays
All rat enzymes were isolated from 18-week-old, male Wistar rats, while human lysosomal α-glucosidase was obtained in commercially available form from Sanoﬁ Genzyme. Inhibition of isolated glucosidases was evaluated as described previously. 3 Brieﬂy, maltase, isomaltase, sucrase, and cellobiase were used as partially puriﬁed tissue extracts. Inhibition assays for each enzyme were performed with the respective natural substrate, and release of d-glucose measured by Glucose B-test (Wako Diagnostics). Assays of rat ER α-glucosidase II and human lysosomal α-glucosidase inhibition were conducted with α-p-nitrophenylglucoside as substrate; 400 mm Na2CO3 was added to quench these reactions, and the extent of hydrolysis was evaluated as absorbance at 400 nm by spectrophotometer. […]

For experiment [1], the system named is DENV (serotype 2, strain 16681) in Huh7.5 cells. In words: DENV Huh7.5 antiviral assay (infectious titer by plaque assay). In kind it is cell-based, dengue virus. To be noted: MOI 0.1, 48 h, titration of 4 or 50 µm of 3. The procedure:
Supplemental Figure 3: Antiviral activity of 4 in human hepatoma Huh7.5 cell line.
(A) Huh7.5 cells were infected with DENV (serotype 2, strain 16681, multiplicity of infection = 0.1) and treated with a titration of ToP-DNJ 4 or 50 µm of tocopherol 3 for 48 h. Infectious virus titer was measured by plaque assay on LLC-MK2 cells. Counts were normalized to 100% for untreated samples.
DENV eﬀect at the concentrations tested. (B) Huh7.5 cells were infected with HCV (JFH-1, multiplicity of infection = 2) and treated with a titration of ToP-DNJ 4 or 50 µm tocopherol 3 for 96 h. Infectious virus titer was measured by TCID50 assay on […]
tested. In both panels, each data point represent the mean of triplicates, with error bars showing standard error of the mean (GraphPad Prism). […]
each well was scored as either positive (≥ 5 stained cells) or negative. TCID50 values were calculated according to the method of Reed and Muench.8 […]
The infectious DENV titres in supernatants collected were evaluated by plaque assay as described previously.9 Brieﬂy, LLC-MK2 cells were seeded in conﬂuent monolayers in a 12-well plate. Four 10-fold dilutions of each supernatant to be analyzed were prepared in minimum essential media (MEM, Gibco), supplemented with 100 µg mL−1 streptomycin, 100 U mL−1 penicillin and 10% (v/v) FCS. […]
After 1 d, plaques were observed and counted from the underside of the plate by eye. […]

T1 sequence (A0A8I6GFL3 33-944): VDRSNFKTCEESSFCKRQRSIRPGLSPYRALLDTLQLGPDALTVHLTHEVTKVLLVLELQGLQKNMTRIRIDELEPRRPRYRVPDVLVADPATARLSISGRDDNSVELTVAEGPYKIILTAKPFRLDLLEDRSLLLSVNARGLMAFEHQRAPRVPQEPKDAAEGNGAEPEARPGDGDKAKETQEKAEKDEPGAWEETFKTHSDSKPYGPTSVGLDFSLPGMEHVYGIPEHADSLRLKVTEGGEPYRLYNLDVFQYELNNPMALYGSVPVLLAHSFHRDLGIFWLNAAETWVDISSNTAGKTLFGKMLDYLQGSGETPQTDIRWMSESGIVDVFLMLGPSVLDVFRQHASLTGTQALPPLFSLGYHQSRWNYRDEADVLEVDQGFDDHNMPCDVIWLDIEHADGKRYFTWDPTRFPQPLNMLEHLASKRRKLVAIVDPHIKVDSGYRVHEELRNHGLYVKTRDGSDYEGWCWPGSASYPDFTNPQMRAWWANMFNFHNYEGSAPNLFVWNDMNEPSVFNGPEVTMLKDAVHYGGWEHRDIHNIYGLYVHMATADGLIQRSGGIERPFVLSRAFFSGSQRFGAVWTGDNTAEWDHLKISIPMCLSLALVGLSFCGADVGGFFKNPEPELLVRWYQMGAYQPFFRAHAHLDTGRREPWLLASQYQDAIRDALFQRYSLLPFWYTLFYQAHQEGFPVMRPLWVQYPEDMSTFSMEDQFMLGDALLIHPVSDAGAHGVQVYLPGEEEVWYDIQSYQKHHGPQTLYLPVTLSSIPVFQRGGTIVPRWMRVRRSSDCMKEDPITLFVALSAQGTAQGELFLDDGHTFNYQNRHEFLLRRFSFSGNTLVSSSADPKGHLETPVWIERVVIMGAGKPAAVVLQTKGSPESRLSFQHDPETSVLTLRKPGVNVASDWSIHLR
T1 sequence (A0A8I6ADW9 1-525 partner): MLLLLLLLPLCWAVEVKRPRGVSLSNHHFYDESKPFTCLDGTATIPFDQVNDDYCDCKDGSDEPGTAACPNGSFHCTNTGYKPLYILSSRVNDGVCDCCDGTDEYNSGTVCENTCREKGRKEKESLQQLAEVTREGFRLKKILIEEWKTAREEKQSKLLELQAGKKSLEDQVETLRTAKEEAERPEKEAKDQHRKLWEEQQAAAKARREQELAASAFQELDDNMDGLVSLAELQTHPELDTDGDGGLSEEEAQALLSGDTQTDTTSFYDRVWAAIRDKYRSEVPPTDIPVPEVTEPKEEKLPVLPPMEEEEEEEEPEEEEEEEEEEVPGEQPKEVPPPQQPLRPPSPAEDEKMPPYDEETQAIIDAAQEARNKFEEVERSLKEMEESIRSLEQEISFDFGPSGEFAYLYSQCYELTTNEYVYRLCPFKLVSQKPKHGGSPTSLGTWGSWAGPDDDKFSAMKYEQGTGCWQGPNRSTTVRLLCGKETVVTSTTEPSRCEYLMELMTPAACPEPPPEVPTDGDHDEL

In the case of `Cc1c(C)c2c(c(C)c1OCCCCCN1CC(O)C(O)C(O)C1CO)CCC(C)(CCCC(C)CCCC(C)CCCC(C)C)O2` (stereo not drawn) [Compound 4, 5′-tocopheroxypentyl-DNJ], the IC50 on rat liver ER GluII (first GluII reaction, fluorescently labelled Glc2Man7GlcNAc1 substrate, read-out: IC50 for the conversion of diglucosylated to monoglucosylated glycan by GluII) is 14 µM; on rat liver ER GluII (second GluII reaction, fluorescently labelled glycan substrate, read-out: IC50 for the conversion of monoglucosylated to nonglucosylated glycan by GluII), 56 µM. The “anti-DENV effect (infectious virus titer)” value in experiment [1] was “neither an anti-DENV nor anti-HCV effect was observed; also recorded: Neither 4 nor 3 showed an anti-”.

The term IC50 denotes the midpoint of a concentration-inhibition curve.

(Values after PMC5824344 (ACS Chemical Biology, 2017).)
